# In article PMC10044120, “Potent and selective covalent inhibition of the papain-like protease from SARS-CoV-2” (Nature Communications, 2023):
# pEC50, pIC50: −log10 of the molar value. Read-outs that look alike come from different tables or passages of the source.
# How the values were obtained:
# [1] = tested on: SARS-CoV-2 isolate USA-WA1/2020; conditions: for EC50 (cytopathic effect): SARS-CoV-2-infected Vero E6 cells, 48 h; for inhibition: read-out: cytopathic effect, % cell viability, duplicate wells
# PLpro from SARS-CoV-2 [2] = target: T1, PLpro from SARS-CoV-2 (Severe acute respiratory syndrome coronavirus 2, UniProt P0DTD1); assay: biochemical; assay type: biochemical; design: mean (kobs plot, Supplementary Figure 6 II): unit: min^-1; conditions: for Time dep. (time-dependent inhibition): fluorogenic peptide assay, varied preincubation time
# [3] = tested on: SARS-CoV-2 isolate USA-WA1/2020; assay: microbe, parasite or virus in culture
# PLpro from SARS-CoV-2 [4] = target: T1, PLpro from SARS-CoV-2; assay: biochemical; assay type: biochemical; conditions: for remaining activity at 0.06 µM: inhibitor 0.06 uM; for remaining activity at 0.2 µM: inhibitor 0.20 uM; for pIC50: after 30-min incubation, purified PLpro, Z-RLRGG-AMC substrate
# Vero E6 cells = conditions: African green monkey, 48 h
# in vitro = conditions: African green monkey
# [5] = Metabolic stability in rat liver microsomes; conditions: Sprague-Dawley
# [6] = Metabolic stability in mouse liver microsomes; conditions: CD-1, mouse
# [7] = Metabolic stability in rat liver S9 fraction; conditions: Sprague-Dawley
# [8] = Metabolic stability in mouse liver S9 fraction; conditions: CD-1, mouse
smiles,measurement,setting,value
"C#CC(=O)NNC(=O)CCc1ccccc1C(=O)N[C@H](C)c1cccc2ccccc12 [Compound 12, (R)-N-(1-(naphthalen-1-yl)ethyl)-2-(3-oxo-3-(2-propioloylhydrazineyl)propyl)benzamide]",EC50 (cytopathic effect),[1],No CPE
same,kinact/KI,PLpro from SARS-CoV-2 [2],4100 M⁻¹ s⁻¹
same,remaining activity at 0.2 µM,"PLpro from SARS-CoV-2 [2]; 5 min, read-out: PLpro activity after preincubation, inhibitor 0.2 uM, preincubation 5 min",80%
same,remaining activity at 0.5 µM,"PLpro from SARS-CoV-2 [2]; 5 min, read-out: PLpro activity after preincubation, inhibitor 0.5 uM, preincubation 5 min",68.1%
same,remaining activity at 0.6 µM,"PLpro from SARS-CoV-2 [2]; 5 min, read-out: PLpro activity after preincubation, inhibitor 0.6 uM, preincubation 5 min",59%
same,remaining activity at 0.7 µM,"PLpro from SARS-CoV-2 [2]; 5 min, read-out: PLpro activity after preincubation, inhibitor 0.7 uM, preincubation 5 min",46.3%
same,remaining activity at 0.2 µM,"PLpro from SARS-CoV-2 [2]; 10 min, read-out: PLpro activity after preincubation, inhibitor 0.2 uM, preincubation 10 min",69.8%
same,remaining activity at 0.5 µM,"PLpro from SARS-CoV-2 [2]; 10 min, read-out: PLpro activity after preincubation, inhibitor 0.5 uM, preincubation 10 min",40.2%
same,remaining activity at 0.6 µM,"PLpro from SARS-CoV-2 [2]; 10 min, read-out: PLpro activity after preincubation, inhibitor 0.6 uM, preincubation 10 min",41.8%
same,remaining activity at 0.7 µM,"PLpro from SARS-CoV-2 [2]; 10 min, read-out: PLpro activity after preincubation, inhibitor 0.7 uM, preincubation 10 min",29.5%
same,remaining activity at 0.2 µM,"PLpro from SARS-CoV-2 [2]; 0.5 h, read-out: PLpro activity after preincubation, inhibitor 0.2 uM, preincubation 30 min",87.5%
same,remaining activity at 0.3 µM,"PLpro from SARS-CoV-2 [2]; 0.5 h, read-out: PLpro activity after preincubation, inhibitor 0.3 uM, preincubation 30 min",71%
same,remaining activity at 0.5 µM,"PLpro from SARS-CoV-2 [2]; 0.5 h, read-out: PLpro activity after preincubation, inhibitor 0.5 uM, preincubation 30 min",14.4%
same,remaining activity at 0.7 µM,"PLpro from SARS-CoV-2 [2]; 0.5 h, read-out: PLpro activity after preincubation, inhibitor 0.7 uM, preincubation 30 min",7.89%
same,remaining activity at 0.2 µM,"PLpro from SARS-CoV-2 [2]; 1 h, read-out: PLpro activity after preincubation, inhibitor 0.2 uM, preincubation 60 min",83.5%
same,remaining activity at 0.6 µM,"PLpro from SARS-CoV-2 [2]; 1 h, read-out: PLpro activity after preincubation, inhibitor 0.6 uM, preincubation 60 min",2.72%
same,remaining activity at 0.2 µM,"PLpro from SARS-CoV-2 [2]; […], read-out: PLpro activity after preincubation, inhibitor 0.2 uM, preincubation 15 min",82%
same,remaining activity at 0.2 µM,"PLpro from SARS-CoV-2 [2]; […], read-out: PLpro activity after preincubation, inhibitor 0.2 uM, preincubation 45 min",75.3%
same,remaining activity at 0.2 µM,"PLpro from SARS-CoV-2 [2]; […], read-out: PLpro activity after preincubation, inhibitor 0.2 uM, preincubation 90 min",60%
same,remaining activity at 0.3 µM,"PLpro from SARS-CoV-2 [2]; […], read-out: PLpro activity after preincubation, inhibitor 0.3 uM, preincubation 90 min",15.6%
same,remaining activity at 0.5 µM,"PLpro from SARS-CoV-2 [2]; […], read-out: PLpro activity after preincubation, inhibitor 0.5 uM, preincubation 15 min",34.6%
same,remaining activity at 0.5 µM,"PLpro from SARS-CoV-2 [2]; […], read-out: PLpro activity after preincubation, inhibitor 0.5 uM, preincubation 45 min",1.63%
same,remaining activity at 0.6 µM,"PLpro from SARS-CoV-2 [2]; […], read-out: PLpro activity after preincubation, inhibitor 0.6 uM, preincubation 15 min",27.5%
same,remaining activity at 0.7 µM,"PLpro from SARS-CoV-2 [2]; […], read-out: PLpro activity after preincubation, inhibitor 0.7 uM, preincubation 15 min",17.8%
same,Time dep. (time-dependent inhibition),PLpro from SARS-CoV-2 [2],Time-dependent inhibition was observed and Yes
same,"mean (kobs plot, Supplementary Figure 6 II)",PLpro from SARS-CoV-2 [2]; inhibitor 0.20 uM,0.0069
same,"mean (kobs plot, Supplementary Figure 6 II)",PLpro from SARS-CoV-2 [2]; inhibitor 0.30 uM,0.0173
same,"mean (kobs plot, Supplementary Figure 6 II)",PLpro from SARS-CoV-2 [2]; inhibitor 0.5 uM,0.0760
same,"mean (kobs plot, Supplementary Figure 6 II)",PLpro from SARS-CoV-2 [2]; inhibitor 0.6 uM,0.0965
same,"mean (kobs plot, Supplementary Figure 6 II)",PLpro from SARS-CoV-2 [2]; inhibitor 0.7 uM,0.1287
same,inhibition at […],"[3]; Severe acute respiratory syndrome coronavirus 2, Vero C1008, read-out: cytopathic effect, % cell viability",6.23%
same,remaining activity at 0.06 µM,PLpro from SARS-CoV-2 [4]; 0.5 h,75.9%
same,remaining activity at 0.2 µM,PLpro from SARS-CoV-2 [4]; 0.5 h,14.8%
same,remaining activity at 200 µM,"PLpro from SARS-CoV-2 [4]; 0.5 h, inhibitor 200.00 uM",2.39%
same,pIC50,PLpro from SARS-CoV-2 [4],7.01
same,"cytotoxicity, %cell viability",Vero E6 cells; 16.67 µM,0.55%
same,"cytotoxicity, %cell viability",Vero E6 cells; 33.33 µM,0.51%
same,CC50 at 48 h,in vitro; CC50,1000 to 5000 nM
same,"viability at 48 h, 8.33 µM","in vitro; cytotoxicity, %cell viability",0.83%
same,"viability at 48 h, 16.67 µM","in vitro; cytotoxicity, %cell viability",0.57%
same,"viability at 48 h, 33.33 µM","in vitro; cytotoxicity, %cell viability",1.02%
"C[C@@H](NC(=O)c1ccccc1CCC(=O)NNC(=O)C(C#N)=CC1CC1)c1cccc2ccccc12 [Compound 13, (R)-2-(3-(2-(2-cyano-3-cyclopropylacryloyl)hydrazineyl)-3-oxopropyl)-N-(1-(naphthalen-1-yl)ethyl)benzamide]",EC50 (cytopathic effect),[1],No CPE
same,Time dep. (time-dependent inhibition),PLpro from SARS-CoV-2 [2],not and No
same,remaining activity at 0.06 µM,PLpro from SARS-CoV-2 [4]; 0.5 h,101%
same,remaining activity at 0.2 µM,PLpro from SARS-CoV-2 [4]; 0.5 h,107%
same,remaining activity at 6.34 µM,"PLpro from SARS-CoV-2 [4]; 0.5 h, inhibitor 6.34 uM",109%
same,remaining activity at 20 µM,"PLpro from SARS-CoV-2 [4]; 0.5 h, inhibitor 20.00 uM",90.5%
same,pIC50,PLpro from SARS-CoV-2 [4],< 3.70
same,"cytotoxicity, %cell viability",Vero E6 cells; 2.08 µM,72.90%
same,"cytotoxicity, %cell viability",Vero E6 cells; 16.67 µM,0.71%
same,"viability at 48 h, 2.08 µM","in vitro; cytotoxicity, %cell viability",83.5%
same,"viability at 48 h, 16.67 µM","in vitro; cytotoxicity, %cell viability",0.88%
"CC(C)NCC(O)COc1cccc2ccccc12 (centres unmarked) [propranolol, reference compound]",half-life,[5],3 min
same,half-life,[6],20 min
same,half-life,[7],3 min
same,half-life,[8],6 min
"CCC(CC)COC(=O)[C@H](C)N[P@](=O)(OC[C@H]1O[C@@](C#N)(c2ccc3c(N)ncnn23)[C@H](O)[C@@H]1O)Oc1ccccc1 [remdesivir, reference compound]","% cell viability, cytopathic effect",[1]; 5.00 uM,97.274%
same,"% cell viability, cytopathic effect",[1]; 10.00 uM,97.073%
same,inhibition,"[1]; [inhibitor] 5.00 uM, 5 µM",97.3%
same,inhibition,"[1]; [inhibitor] 10.00 uM, 10 µM",97.1%
same,pEC50,"[3]; Severe acute respiratory syndrome coronavirus 2, Vero C1008, 48 h, read-out: EC50 (cytopathic effect)",6.13
same,viability at 5 µM,"[3]; Severe acute respiratory syndrome coronavirus 2, Vero C1008, read-out: % cell viability, cytopathic effect, 5.00 uM",102%
same,viability at 10 µM,"[3]; Severe acute respiratory syndrome coronavirus 2, Vero C1008, read-out: % cell viability, cytopathic effect, 10.00 uM",101%
same,inhibition at 5 µM,"[3]; Severe acute respiratory syndrome coronavirus 2, Vero C1008, read-out: cytopathic effect, % cell viability, [inhibitor] 5.00 uM, duplicate wells",102%
same,inhibition at 10 µM,"[3]; Severe acute respiratory syndrome coronavirus 2, Vero C1008, read-out: cytopathic effect, % cell viability, [inhibitor] 10.00 uM, duplicate wells",101%
